For data set [1] the following is noted: conventional blue dyes for sentinel lymph node procedures, after injection into tissue; cited from earlier work.
For data set [2], the system named is HCT-116 human colon tumor cells.
In data set [3] the test system is P-388 murine leukemia cells.

For the molecule `CN(C)c1ccc2nc3ccc(=[N+](C)C)cc-3sc2c1` [methylene blue], the “Passage out of lymphatic ducts into surrounding tissue” value in data set [1] is reported as “tend to flow out of the lymphatic ducts into the surrounding tissue very quickly”.

In the case of doxorubicin-cobalamin conjugate, the Cellular uptake entry in data set [2] and in data set [3] was “can be observed” in each case.

Take `CCN(CC)c1ccc(C(=C2C=CC(=[N+](CC)CC)C=C2)c2cc(S(=O)(=O)[O-])ccc2S(=O)(=O)[O-])cc1.[Na+]` [Lymphazurine]: the “Passage out of lymphatic ducts into surrounding tissue” value in data set [1] is listed as “tend to flow out of the lymphatic ducts into the surrounding tissue very quickly”.

These data come from patent publication US8140141B2, “Devices and methods for fluorescent inspection and/or removal of material in a sample” (University of Utah Research Foundation, priority 2006, dated 2012).
